Assay results from article PMC4006873 (Biochemistry, 2013).
Peptide text beside a SMILES is read from it. * marks the point of attachment. X1 = C[C@@H]1C[C@H]2[C@@H]3CCC4=CC(=O)C=C[C@]4(C)[C@@]3(F)[C@@H](O)C[C@]2(C)[C@@]1(O)C(=O)CSCCC(=O)*

What was measured:
[1] = target: T1, GR★-GFP (Homo sapiens, UniProt P04150, C638G); experiment: High-content imaging of GIGT in stably transfected Saos-2; type: cell-based; conditions: Saos-2(GIGT) cells, 30 min; for Z′-factor of GIGT assay: 1 μM vs untreated
T1 sequence (P04150 1-777 C638G): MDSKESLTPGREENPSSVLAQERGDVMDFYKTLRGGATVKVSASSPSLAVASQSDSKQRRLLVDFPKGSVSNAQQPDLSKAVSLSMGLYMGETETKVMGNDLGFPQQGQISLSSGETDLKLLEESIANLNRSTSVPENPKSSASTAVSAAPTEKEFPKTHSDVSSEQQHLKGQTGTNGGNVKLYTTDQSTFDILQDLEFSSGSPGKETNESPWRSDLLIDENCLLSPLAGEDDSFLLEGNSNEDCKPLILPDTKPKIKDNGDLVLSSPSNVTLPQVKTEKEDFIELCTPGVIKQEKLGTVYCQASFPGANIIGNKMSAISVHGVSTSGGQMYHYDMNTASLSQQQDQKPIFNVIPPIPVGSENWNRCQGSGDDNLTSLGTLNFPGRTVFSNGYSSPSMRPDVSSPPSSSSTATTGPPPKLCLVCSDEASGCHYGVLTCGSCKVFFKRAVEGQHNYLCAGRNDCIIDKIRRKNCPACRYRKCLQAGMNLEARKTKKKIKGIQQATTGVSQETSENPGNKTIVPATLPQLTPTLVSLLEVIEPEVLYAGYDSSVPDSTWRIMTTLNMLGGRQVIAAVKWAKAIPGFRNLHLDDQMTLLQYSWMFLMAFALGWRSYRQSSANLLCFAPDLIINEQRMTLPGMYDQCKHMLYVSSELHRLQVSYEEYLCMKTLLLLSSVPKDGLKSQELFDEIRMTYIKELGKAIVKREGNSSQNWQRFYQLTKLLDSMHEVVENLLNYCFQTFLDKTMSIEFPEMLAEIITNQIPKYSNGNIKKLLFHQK

[2] = target: T1, GR★-GFP; experiment: GIGT nuclear translocation, transiently transfected cells expressing GR★-GFP; type: cell-based; conditions: HeLa cells expressing GR★-GFP, 500 nM, 30 min
[3] = target: T2, Gal4-GR★-VP16 (Homo sapiens, UniProt P04150, C638G); experiment: GIGI in cell lysates, stably transfected U2OS; conditions: U2OS(GIGI) cells; for Z′-factor of GIGI assay: 1 μM vs untreated, 24 h, n = 150
T2 sequence (P04150 524-758 C638G): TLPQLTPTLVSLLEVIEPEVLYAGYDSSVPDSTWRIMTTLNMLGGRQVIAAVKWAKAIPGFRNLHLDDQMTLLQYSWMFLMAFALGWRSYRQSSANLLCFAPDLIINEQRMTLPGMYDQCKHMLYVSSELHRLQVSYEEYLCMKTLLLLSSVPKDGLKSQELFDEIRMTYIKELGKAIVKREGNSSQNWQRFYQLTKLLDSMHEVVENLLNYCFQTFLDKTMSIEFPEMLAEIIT

[4] = target: rat C656G GR; conditions: read-out: equilibrium dissociation constant (Kd), in vitro; cited from earlier work

Structure (SMILES) | Z′-factor of GIGT assay [1] | translocation ratio (TR) ([1]; 1 μM) | translocation ratio (TR) [2] | eGFP expression after treatment and cell lysis ([3]; 1 μM) | Z′-factor of GIGI assay [3] | Kd [4]
CC[C@H](C)[C@H](NC(=O)[C@H](CC(C)C)NC(=O)[C@H](CC(=O)O)NC(=O)[C@H](CCCNC(=N)N)NC(=O)[C@@H](NC(=O)[C@@H]1CCCN1C(=O)[C@H](C)NC(=O)[C@H](CC(=O)O)NC(=O)[C@H](CC(=O)O)NC(=O)CNC(=O)[C@@H]1CCCN1C(=O)[C@H](Cc1ccc(O)cc1)NC(=O)[C@@H](NC(=O)[C@@H]1CCCN1C(=O)[C@H](CCC(N)=O)NC(=O)[C@H](CO)NC(=O)[C@@H]1CCCN1C(=O)CN)[C@@H](C)O)C(C)C)C(=O)N[C@@H](CCCNC(=N)N)C(=O)N[C@@H](Cc1ccccc1)C(=O)N[C@@H](Cc1ccc(O)cc1)C(=O)N[C@@H](CCCNC(=N)N)C(=O)N[C@@H](CC(=O)O)C(=O)N[C@@H](CC(C)C)C(=O)N[C@@H](CCCNC(=N)N)C(=O)N[C@@H](CCCNC(=N)N)C(=O)N[C@@H](Cc1ccc(O)cc1)C(=O)N[C@@H](CC(C)C)C(=O)N[C@@H](CC(N)=O)C(=O)N[C@H](C(=O)N[C@H](C(=O)N[C@H](C(=O)N[C@@H](CCCNC(=N)N)C(=O)N[C@@H](Cc1c[nH]cn1)C(=O)N[C@@H](CCCNC(=N)N)C(=O)N[C@@H](Cc1ccc(O)cc1)C(=O)N[C@@H](CCCCNC(=O)CCSCC(=O)[C@@]1(O)[C@H](C)C[C@H]2[C@@H]3CCC4=CC(=O)C=C[C@]4(C)[C@@]3(F)[C@@H](O)C[C@@]21C)C(N)=O)[C@@H](C)O)C(C)C)C(C)C [5.3^Dex] (H-GPSQPTYPGDDAPVRDLIRFYRDLRRYLNVVTRHRYK(X1)-NH2; N-terminus and C-terminus assumed) | 0.54 | 4.01 ± 0.30 | 2.79 ± 0.39 | significant eGFP expression | 0.56 | –
C[C@@H]1C[C@H]2[C@@H]3CCC4=CC(=O)C=C[C@]4(C)[C@@]3(F)[C@@H](O)C[C@]2(C)[C@@]1(O)C(=O)CO [Dex, dexamethasone] | – | – | – | – | – | 0.55 nM
CC(C)C[C@H](NC(=O)[C@H](Cc1c[nH]cn1)NC(=O)[C@H](CCCNC(=N)N)NC(=O)[C@H](CO)NC(=O)[C@H](CC(C)C)NC(=O)[C@@H](NC(=O)[C@H](Cc1ccccc1)NC(=O)[C@H](C)NC(=O)[C@H](CCCCN)NC(=O)CNC(=O)[C@H](CS)NC(=O)[C@@H](NC(=O)[C@H](CC(N)=O)NC(=O)[C@H](CS)NC(=O)[C@H](CO)NC(=O)[C@H](Cc1ccc(O)cc1)NC(=O)[C@@H](N)Cc1c[nH]c2ccccc12)C(C)C)C(C)C)C(=O)N[C@@H](CC(N)=O)C(=O)N[C@@H](CCCNC(=N)N)C(=O)N[C@@H](Cc1c[nH]cn1)C(=O)N[C@@H](CC(C)C)C(=O)N[C@@H](CCCNC(=N)N)C(=O)N[C@H](C(=O)N[C@@H](Cc1c[nH]cn1)C(=O)N[C@@H](CCCNC(=N)N)C(=O)N[C@@H](CCCNC(=N)N)C(=O)N[C@@H](C)C(=O)N[C@H](C(=O)N[C@@H](CCCCNC(=O)CCSCC(=O)[C@@]1(O)[C@H](C)C[C@H]2[C@@H]3CCC4=CC(=O)C=C[C@]4(C)[C@@]3(F)[C@@H](O)C[C@@]21C)C(N)=O)[C@@H](C)O)C(C)C [ZF5.3^Dex] (H-WYSCNVCGKAFVLSRHLNRHLRVHRRATK(X1)-NH2; N-terminus and C-terminus assumed) | 0.56 | – | – | – | 0.42 | –
